Measurements reported in ChEMBL document CHEMBL1124601, “Bifunctional antitumor compounds: synthesis and characterization of a Au(III)-streptonigrin complex with thiol-modulating properties” (J Med Chem, 1989).
Converted amounts (≈) assume the structure as drawn.

Columns and labels:
P388 [1] = experiment: In vitro concentration to inhibit the growth of P-388 leukemia cells; type: functional, cell-based; settings: Mus musculus
[2] = The dissociation constant at pH 3 using potentiometric titration in 100 uM of compound in 0.15 M KCl at 25 degrees Centigrade; type: ADME; settings: 0.15 M KCl solution
[3] = The dissociation constant at pH 8 using potentiometric titration in 100 uM of compound in 0.15 M KCl at 25 degree Centigrade; type: ADME; settings: 0.15 M KCl solution
[4] = The dissociation constant of the free compound in 1: 1 dioxane-water mixture.; type: ADME
P388 [5] = experiment: Compound concentration was evaluated in vitro to inhibit the growth of P-388 leukemia cells; type: functional; settings: Mus musculus, read-out: ID50 (the source's name)

Molecule | ID50 (P388 [1]) [µg/mL] | pKa at 100 µM [2] | pKa at 100 µM [3] | pKa [4] | IC50 (P388 [5]) [µg/mL]
5-Amino-6-(7-amino-6-methoxy-5,8-dioxo-5,8-dihydro-quinolin-2-yl)-4-(2-hydroxy-3,4-dimethoxy-phenyl)-3-methyl-pyridine-2-carboxylic acid; compound with Gold | 0.05 |  |  |  | 
COC1=C(N)C(=O)c2nc(-c3nc(C(=O)O)c(C)c(-c4ccc(OC)c(OC)c4O)c3N)ccc2C1=O [STREPTONIGRIN] |  | 4.7 | 6.6 | 6.5 | 0.05 (≈ 0.0987 µM)
